Reference: patent US11560360B2, “Therapeutic compounds” (ARIZONA BOARD OF REGENTS ON BEHALF OF ARIZONA STATE …, priority 2016, dated 2023)

Experiments:
FRDA lymphocytes [1] = assay: Cytotoxicity assay in FRDA lymphocytes cultured in glucose free media (galactose), Live/Dead flow cytometry; type: cell-based; details: FRDA lymphocytes, galactose as sole sugar source, 24 h or 48 h incubation (FIG. 2)
Description: Flow cytometric determination of cell viability by fluorescence labeling was used employing calcein acetoxy-methyl-ester and ethidium homodimer-1 as live and dead cell stains
Cytotoxicity was assessed by the dye exclusion method. Live cells have intact membranes, which exclude a variety of dyes that easily penetrate the damaged, permeable membranes of non-viable cells. Propidium iodide, a membrane impermeant dye, is generally excluded from viable cells, although it can enter non-viable cells and bind to double-stranded DNA by intercalating between base pairs. Compounds 1-5 were tested for their cytotoxicity in FRDA lymphocytes using FACS analysis with propidium iodide. The results are depicted in FIG. 2. From the results it is evident that cytotoxicity decreases with increasing lipophilicity in lower as well as higher concentrations for compounds 1-5.
Evaluation of compounds 1-5 for their cytotoxicity and their ability to function within the mitochondrial respiratory chain was carried out by incubation of the prepared compounds for 24 or 48 h with FRDA lymphocytes. A nutrient-sensitized screening strategy has been used by culturing FRDA cells in galactose as the sole sugar source which forces mammalian cells to rely on mitochondrial oxidative phosphorylation (OXPHOS) to produce their ATP; they also become more sensitive to mitochondrial respiratory chain inhibitors than cells grown in glucose medium. Compounds 1-5 were tested for their cytotoxicity in FRDA lymphocytes using a simultaneous staining with a two-color fluorescence assay, the Live/Dead® Viability/Cytotoxicity Kit (Molecular Probes). This assay is used to measure two recognized parameters of cell viability, intracellular esterase activity and plasma integrity. The membrane-impermeant DNA dye ethidium homodimer-1 (EthD-1) was used to identify dead cells whose plasma membrane integrity was disrupted. The membrane-permeant dye calcein-AM was used to label live cells. It penetrates into the cells where it is metabolized by cytoplasmic esterases and becomes a fluorescent but membrane-impermeant probe which is retained in viable cells. One mL of FRDA lymphocyte cells (5×10^5 cells) was plated in a 24-well plate in glucose free media (galactose 25 mM), treated with the test compounds and incubated at 37° C. for 24 h or 48 h in a humidified atmosphere containing 5% CO2 in air. Cells were collected by centrifugation at 300×g for 3 min and washed with phosphate buffered saline. […] The samples were analyzed immediately by flow cytometry (C6 Accuri, BD Biosciences, San Jose, Calif.), using a 488 nm excitation laser and the and the FL1-H channel 530±15 nm emission filter and the FL2-H channel 585±15 nm. For each analysis 10,000 events were recorded and analyzed using C6 Accuri software (BD Biosciences).

FRDA lymphocytes [2] = assay: Measurement of cellular ATP concentration (firefly luciferase); type: cell-based, human; details: glucose free media (25 mM galactose), relative to untreated control (FIG. 6)
Description: Results are expressed as percentage of total ATP relative to untreated control.
ATP levels in FRDA lymphocytes were measured using firefly luciferase. The cells were grown on glucose-free media supplemented with galactose for 24 h prior to the addition of the test compounds. Since cells grown in galactose rely mostly on oxidative phosphorylation (OX-PHOS) to produce their ATP, they become more sensitive to mitochondrial respiratory chain inhibitors than cells grown in glucose medium.
Measurement of Cellular ATP Concentration
Total ATP levels in FRDA lymphocytes with or without partially blocking complex I activity with rotenone (5 nM) were measured using firefly luciferase as a means to measure ATP level. The cells were grown on glucose-free media supplemented with galactose. Since cells grown in galactose rely mostly on oxidative phosphorylation (OXPHOS) to produce their ATP, they become more sensitive to mitochondria respiratory chain inhibitors than cells grown in glucose medium. Briefly, lymphocytes (2×10^5 cell/mL) were plated (1 mL) in 24-well plates, treated with the test compounds, and then incubated at 37° C. for 48 h in a humidified atmosphere containing 5% CO2 in air. FRDA lymphocytes with partial inhibition of complex I, cells were preincubated with test compounds for overnight before rotenone (5 nM) treatment for 24 h. Cells in each well were mixed and transferred (100 μL) to 96-well microtiter black-walled cell culture plates (Costar, Corning, N.Y.). The total intracellular ATP level was measured in a luminator (Clarity™ luminescence microplate reader) using an ATP Bioluminescence Assay Kit (ViaLight®-Plus ATP monitoring reagent kit, Lonza) following the manufacturer's protocol. The total ATP level was expressed as a percentage of untreated control. Data are reported as the mean of at least three independent experiments.

[3] = system: FRDA fibroblasts (GM04078); assay: Cytoprotection of BSO-treated FRDA fibroblasts, Live/Dead kit; type: cell-based, human; details: overnight preincubation, then BSO (5 mM) 48 h (FIG. 7)
Description: Results obtained were verified by running triplicates and repeating experiments in two independent runs.
The ability of test compounds 1-5 to confer cytoprotection to buthionine sulfoximine (BSO)-treated FRDA fibroblasts from oxidative damage-induced death was determined by using simultaneous staining with a two-color fluorescence assay, the Live/Dead® Viability/Cytotoxicity Kit (Molecular Probes, Eugene, Oreg.). The cells were subjected to L-buthionine (S,R)-sulfoximine, an inhibitor of de novo glutathione (GSH) biosynthesis. Oxidative damage-induced death of FRDA fibroblasts was blocked by the test compounds in a concentration dependent manner (FIG. 7). […] The optimal side chain length was 15 carbon atoms.
The ability of the test compounds to confer cytoprotection to BSO-treated FRDA fibroblasts was determined by assessing plasma membrane integrity and intracellular esterase activity using the LIVE/DEAD Viability/Cytotoxicity Kit for mammalian cells according to the manufacturer's protocol. Briefly, FRDA fibroblasts (GM04078) were plated in 96-well microtiter plates at a density of 3000 cell/well (50 μL) (Costar, Corning, N.Y.). The plates were incubated at 37° C. for 24 h in an atmosphere having 95% humidity and 5% CO2 to allow attachment of the cells to the culture plates and to allow the cell density reach 50-60% confluency. The next day the test compounds were dissolved in DMSO, diluted to the appropriate concentrations in fresh cell culture media and the cells were then treated with the test compounds (final DMSO concentration was <0.5%). Plates were incubated at 37° C. overnight in a humidified atmosphere containing 5% CO2 in air. […] Fluorescence intensities were measured with a Spectramax M5 spectrofluorometer (Molecular Devices, Sunnyvale, Calif.) using excitation and emission wavelengths of 485 nm and 525 nm, respectively. […] The viability of non-BSO treated fibroblasts was set as 100%, and the viability of the BSO treated and sample-treated cells was calculated relative to this value. Cell viability was expressed as the percentage of control.

[4] = system: FRDA lymphocytes treated with rotenone (complex I inhibition); assay: Cytoprotection of rotenone-treated FRDA lymphocytes; type: cell-based, human; details: 12 h preincubation in glucose-free media, then rotenone (50 nM) 24 h or 48 h (FIG. 3)
[5] = system: FRDA lymphocyte cells (GM15850); assay: Reactive oxygen species (ROS) assay, DCFH-DA, diethyl maleate-treated FRDA lymphocytes; type: cell-based, human; details: 16 h pretreatment, 5 mM diethyl maleate 80 min, DCFH-DA (FIG. 5)
Description: The ability of compounds 1-5 to suppress ROS induced by the depletion of cellular glutathione was evaluated in FRDA lymphocytes in a quantitative FACS experiment using dichlorofluorescein diacetate (DCFH-DA) as an indicator of intracellular ROS levels. In cells DCFH-DA is hydrolyzed by esterases to afford 2, 7-dichlorodihydrofluorescein (DCFH). The non-fluorescent DCFH can be oxidized by cellular oxidants generating fluorescent dichlorofluorescein (DCF).
Reactive Oxygen Species (ROS) Assay
Intracellular ROS production was measured in FRDA lymphocyte cells (GM15850, Coriell Cell Repositories, Camden, N.J.) using the oxidant sensitive fluorescent probe 2,7-dichlorodihydrofluorescein diacetate (DCFH-DA) (Molecular Probes) as described previously. […] The samples were analyzed immediately by flow cytometry (C6 Accuri, BD Biosciences, San Jose, Calif.), using a 488 nm excitation laser and the FL1-H channel 530±15 nm emission filter for DCF and FL2-H channel 585±15 nm emission filter for propidium iodide. The generation of ROS, mainly peroxides, was detected as a result of the oxidation of DCFH. In each analysis, 10,000 events were recorded after dead cell and debris were gated out. […] ROS production was evaluated only in living cells which are propidium iodide negative. […] Results were expressed as percentage of ROS scavenging activity or as percentage of the median fluorescence intensity of DCF.

[6] = system: mitochondrial inner membrane potential in FRDA lymphocytes; assay: JC-1 mitochondrial membrane potential (Δψm) assay; type: cell-based, human; details: 16 h pre-treatment, JC-1, FACS (FIG. 4)
Description: In each analysis, 10000 events were recorded. Depolarization with carbonyl cyanide p-(trifluoromethoxy) phenylhydrazone (FCCP), was used to serve as a positive control.
The ability of 1-5 to maintain mitochondrial membrane potential (ΔΨm) compared to the parent compound MV was studied. ΔΨm was determined using the cationic fluorescent dye 5, 5′, 6, 6′-tetrachloro-1, 1′, 3, 3′-tetraethylbenzimidazolyl carbocyanine iodide (JC-1), which is a lipophilic cation that selectively accumulates in mitochondria due to the negative potential across the inner mitochondrial membrane. The dye exists as a monomer at low concentrations giving a green fluorescence. […] Therefore, mitochondrial depolarization is indicated by a decrease in red/green fluorescence ratio. […]
The ability of the test compounds to depolarize or maintains mitochondrial inner membrane potential (Δψm) was assessed using the JC-1 probe. […] JC-1 is a dual stain, which can identify high membrane potential through J-aggregates (red fluorescence) and low membrane potential through J-monomers (green fluorescence). […] Cells were resuspended in phosphate buffered saline supplemented with 20 mM glucose and were analyzed immediately by FACS (C6 Accuri, BD Biosciences, San Jose, Calif.), using a 488 nm excitation laser and the FL1-H channel 530±15 nm emission filter and the FL2-H channel 585±15 nm. […]

CCCCN(CCCC)c1ccc2nc3ccc(=O)cc-3sc2c1 [Compound 1, 7-(N,N-Dibutylamino)-3H-phenothiazin-3-one]
cytotoxicity (FRDA lymphocytes [1]): somewhat cytotoxic | cellular ATP levels (FRDA lymphocytes [2]): reduces cellular ATP levels in all concentrations

CCCCCCCCCCN(CCCCCCCCCC)c1ccc2nc3ccc(=O)cc-3sc2c1 [Compound 2, 7-(N,N-Didecylamino)-3H-phenothiazin-3-one]
cytotoxicity (FRDA lymphocytes [1]): somewhat cytotoxic | cellular ATP levels (FRDA lymphocytes [2]): reduces cellular ATP levels in all concentrations

CCCCCCCCCCCCCCCN(CCCCCCCCCCCCCCC)c1ccc2nc3ccc(=O)cc-3sc2c1 [Compound 3, 7-(N,N-Dipentadecylamino)-3H-phenothiazin-3-one]
cytoprotection from oxidative damage-induced death [3]: the least effective

CCCCCCCCCCCCCCCN(C)c1ccc2nc3ccc(=O)cc-3sc2c1 [Compound 4, 7-(N-Methyl-N-pentadecylamino)-3H-phenothiazin-3-one]
cytoprotection against rotenone cytotoxicity [4]: protect the cells against rotenone cytotoxicity more efficiently than the parent compound MV | suppression of ROS induced by depletion of cellular glutathione [5]: more potent and effective in protecting FRDA lymphocytes than the parent compound MV | cytoprotection from oxidative damage-induced death [3]: better potency than 1 or 2

CCCCCCCCCCCCCCCN(CCCC)c1ccc2nc3ccc(=O)cc-3sc2c1 [Compound 5, 7-(N-Butyl-N-pentadecylamino)-3H-phenothiazin-3-one]
cytoprotection against rotenone cytotoxicity [4]: protect the cells against rotenone cytotoxicity more efficiently than the parent compound MV | suppression of ROS induced by depletion of cellular glutathione [5]: more potent and effective in protecting FRDA lymphocytes than the parent compound MV | cytoprotection from oxidative damage-induced death [3]: better potency than 1 or 2

CN(C)c1ccc2nc3ccc(=O)cc-3sc2c1 [MV, Methylene violet, reference compound]
preservation of mitochondrial membrane potential (Δψm) [6]: significantly depolarized Δψm | cellular ATP levels (FRDA lymphocytes [2]): strongly reduces cellular ATP levels in a concentration dependent manner
